Test results reported in US20230122249A1, “1H-PYRAZOLO[4,3-d]PYRIMIDINE COMPOUNDS AS TOLL-LIKE RECEPTOR 7 (TLR7) AGONISTS” (BRISTOL-MYERS SQUIBB COMPANY, priority 2020, published 2023).

Columns and labels:
[1] = tested on: CD69 in human whole blood; experiment: Induction of CD69 in human whole blood (hWB); assay type: cell-based; settings: heparinized human whole blood, 17 h, CD69 surface staining; 100% set to 1 uM resiquimod; average where assay repeated
Procedure, shortened: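 hWB stimulated with compound at 1 uM final (1 mM stock), 37° C o/n (17 hrs). Surface CD69-PE staining with CD14/CD19 gating, fix/lysis, then flow cytometry read. IC50 curves with 100% set to 1 uM resiquimod.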

human TLR7 = target: T1, human TLR7 (Homo sapiens, UniProt Q9NYK1); experiment: Human TLR7 agonist activity (hTLR7 reporter) assay in HEK-Blue TLR7 cells, SEAP readout; assay type: cell-based; settings: 18 h treatment, average where assay repeated
T1 construct: host or cells: HEK-Blue TLR7 cells (engineered human embryonic kidney cells)
T1 sequence (Q9NYK1 27-1049): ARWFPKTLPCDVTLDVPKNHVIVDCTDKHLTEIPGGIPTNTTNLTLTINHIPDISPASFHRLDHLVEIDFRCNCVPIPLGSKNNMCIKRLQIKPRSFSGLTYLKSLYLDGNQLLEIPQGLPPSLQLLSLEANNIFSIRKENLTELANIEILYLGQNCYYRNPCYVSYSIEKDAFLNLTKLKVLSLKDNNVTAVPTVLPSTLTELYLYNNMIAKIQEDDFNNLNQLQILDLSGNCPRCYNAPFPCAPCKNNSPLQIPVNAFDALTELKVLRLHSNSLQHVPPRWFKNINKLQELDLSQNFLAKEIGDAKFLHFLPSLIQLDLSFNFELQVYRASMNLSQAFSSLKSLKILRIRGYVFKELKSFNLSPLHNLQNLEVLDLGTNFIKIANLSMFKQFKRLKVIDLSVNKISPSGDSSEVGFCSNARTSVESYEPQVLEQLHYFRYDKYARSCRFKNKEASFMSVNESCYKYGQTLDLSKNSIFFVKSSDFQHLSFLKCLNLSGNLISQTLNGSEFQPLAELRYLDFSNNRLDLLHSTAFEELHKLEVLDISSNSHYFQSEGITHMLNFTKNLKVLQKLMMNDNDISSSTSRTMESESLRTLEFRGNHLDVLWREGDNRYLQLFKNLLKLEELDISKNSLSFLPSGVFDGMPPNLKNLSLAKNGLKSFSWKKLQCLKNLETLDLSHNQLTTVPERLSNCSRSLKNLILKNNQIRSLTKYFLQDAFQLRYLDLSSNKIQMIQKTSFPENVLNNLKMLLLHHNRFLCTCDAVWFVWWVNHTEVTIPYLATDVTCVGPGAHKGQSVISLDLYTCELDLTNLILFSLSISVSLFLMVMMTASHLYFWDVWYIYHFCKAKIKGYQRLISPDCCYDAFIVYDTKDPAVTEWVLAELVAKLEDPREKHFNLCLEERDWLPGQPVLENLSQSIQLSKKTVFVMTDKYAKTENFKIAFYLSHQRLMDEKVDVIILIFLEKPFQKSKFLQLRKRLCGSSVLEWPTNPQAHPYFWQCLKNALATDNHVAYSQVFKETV
Procedure, shortened: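 HEK-Blue TLR7 cells (15,000/well) treated with compound for 18 h at 37 °C, 5% CO2. Secreted SEAP measured with Quanti-Blue, 30 min, OD 620 nm. EC50 taken as concentration giving half-maximal response between baseline and maximum.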

SMILES	EC50 [1]	EC50 (human TLR7)
CCC[C@@H](CCO)Nc1nc(N)nc2cnn(Cc3ncc(C4=CC5(CCNCC5)C4)cc3OC)c12 [Compound 272, (3S)-3-({5-amino-1-[(5-{7-azaspiro[3.5]non-1-en-2-yl}-3-methoxypyridin-2-yl)methyl]-1H-pyrazolo[4,3-d]pyrimidin-7-yl}amino)hexan-1-ol]	31.9 nM	668 nM
CCC[C@@H](CCO)Nc1nc(N)nc2cnn(Cc3ncc(C4=CC5(CCN(C6CCOCC6)CC5)C4)cc3OC)c12 [Compound 273, (3S)-3-{[5-amino-1-({3-methoxy-5-[7-(oxan-4-yl)-7-azaspiro[3.5]non-1-en-2-yl]pyridin-2-yl}methyl)-1H-pyrazolo[4,3-d]pyrimidin-7-yl]amino}hexan-1-ol]	1.5 nM	47.5 nM
CCC[C@@H](CCO)Nc1nc(N)nc2cnn(Cc3ncc(C4=CC5(CCN(C(C)C)CC5)C4)cc3OC)c12 [Compound 274]	1.1 nM	82.3 nM
CCC[C@@H](CCO)Nc1nc(N)nc2cnn(Cc3ncc(C4=CC5(CCN(CC(C)C)CC5)C4)cc3OC)c12 [Compound 275]	1.2 nM	11 nM
CCC[C@@H](CCO)Nc1nc(N)nc2cnn(Cc3ncc(C4CCC5(CC4)CN(C(C)C)C5)cc3OC)c12 [Compound 277]	0.3 nM	19.7 nM
